Laboratory results published in US20260022142A1, “MACROCYCLIC IMMUNOMODULATORS” (Bristol-Myers Squibb Company, priority 2022, published 2026).
Numbered stars: 1 amine (or outer) side, 2 acyl side, 3 side chain; on linkers, the order of the positions; unused ones are H or OH. Bridge positions count the residues as written; N and C are the ends. Square brackets hold non-standard residues; d marks the D form. Peptide text beside a SMILES is read from it. * marks the point of attachment. Phe(3-CF3) = N[C@@H](Cc1cccc(C(F)(F)F)c1)C(=O)O; Phe(4-COOH) = N[C@@H](Cc1ccc(C(=O)O)cc1)C(=O)O; Phe(3,4-F2) = N[C@@H](Cc1ccc(F)c(F)c1)C(=O)O; Bip = N[C@@H](Cc1ccc(-c2ccccc2)cc1)C(=O)O; Phe(3-Me) = Cc1cccc(C[C@H](N)C(=O)O)c1; γGlu = O=C(O)[C@H](CCC(=O)[*:2])N[*:1]; βAsp = O=C(O)[C@H](CC(=O)[*:2])N[*:1]; NH(CH2)12COOH = O=C(O)CCCCCCCCCCCCN*; PEG6 = NCCOCCOCCOCCOCCOCCOCCC(=O)O; Val(3-OH) = CC(C)(O)[C@H](N)C(=O)O; X12 = CC(N)[C@H](N[*:1])C(=O)[*:2]; hArg = N=C(N)NCCCC[C@H](N)C(=O)O; 4Pal = N[C@@H](Cc1ccncc1)C(=O)O; Cha = N[C@@H](CC1CCCCC1)C(=O)O; Cit = NC(=O)NCCC[C@H](N)C(=O)O; dCha = N[C@H](CC1CCCCC1)C(=O)O; Dap(Me) = CNC[C@H](N)C(=O)O; 12Ado = NCCCCCCCCCCCC(=O)O; dDab = NCC[C@@H](N)C(=O)O; Carboxymethyl = O=C(O)C*; Orn = NCCC[C@H](N)C(=O)O; Aun = NCCCCCCCCCCC(=O)O; Dab = NCC[C@H](N)C(=O)O; Dap = NC[C@H](N)C(=O)O; AEEA = NCCOCCOCC(=O)O

target: T1, PD-1/PD-L1 interaction (PE-labeled human PD-L1-Ig binding to Jurkat cell line over-expressing human PD-1) (Homo sapiens, UniProt Q15116); assay: Jurkat-PD-1 Cell Binding High-Content Screening Assay (CBA); type: cell-based; settings: Jurkat cell line over-expressing human PD-1; PE-labeled PD-L1-Ig 20 nM final; read-out: Jurkat hPD1-PDL1 IC50
T1 construct: expressed in transfected cells; host or cells: Jurkat
T1 sequence (Q15116 25-288): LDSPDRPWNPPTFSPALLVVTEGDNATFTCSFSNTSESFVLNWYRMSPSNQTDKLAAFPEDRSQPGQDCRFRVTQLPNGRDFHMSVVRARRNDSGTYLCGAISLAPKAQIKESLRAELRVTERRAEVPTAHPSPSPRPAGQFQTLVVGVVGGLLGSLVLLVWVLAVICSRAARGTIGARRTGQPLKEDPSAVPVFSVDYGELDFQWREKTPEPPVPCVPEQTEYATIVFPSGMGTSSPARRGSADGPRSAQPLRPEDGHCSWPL
How it was run: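 Read-out is high-content imaging of cell-bound phycoerythrin-tagged PD-L1-Ig on fixed, Hoechst-counterstained Jurkat cells that over-express human PD-1. Compound exposure lasts 2 h at 37° C before the labeled ligand (20 nM final) is added for a further hour.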

| IC50 [nM] | SMILES |
| --- | --- |
| 62.8 | CC[C@H](C)[C@@H]1NC(=O)[C@H](Cc2ccc(-c3ccccc3)cc2)NC(=O)[C@H](C(C)C)NC(=O)[C@H](Cc2cccc(C)c2)NC(=O)[C@H](CC(=O)O)NC(=O)[C@H](Cc2ccc(C(=O)O)cc2)NC(=O)[C@H](Cc2ccncc2)NC(=O)CSC[C@@H](C(=O)N[C@@H](Cc2cnc[nH]2)C(=O)NCCCCCCCCCCC(=O)O)NC(=O)[C@H]([C@@H](C)O)NC(=O)[C@H](C(C)C)NC(=O)[C@H](CC2CCCCC2)NC(=O)[C@H](CCN)NC(=O)[C@@H](CC(C)C)NC(=O)[C@H](CCCN)NC1=O [Compound 1187] |
| 10.4 | Cc1cccc(C[C@@H]2NC(=O)[C@H](CC(=O)O)NC(=O)[C@H](Cc3ccc(OCC(=O)O)cc3)NC(=O)[C@H](CN)NC(=O)CSC[C@@H](C(=O)N[C@@H](C)C(=O)N[C@@H](CCCCN)C(=O)NCCCCCCCCCCC(=O)O)NC(=O)[C@H]([C@@H](C)O)NC(=O)[C@H](C(C)C)NC(=O)[C@H](CC3CCCCC3)NC(=O)[C@H](CCN)NC(=O)[C@@H](CC(C)C)NC(=O)[C@H](CCCN)NC(=O)[C@H](CCCNC(N)=O)NC(=O)[C@H](Cc3ccc(-c4ccccc4)cc3)NC(=O)[C@H](C(C)C)NC2=O)c1 [Compound 1070] ({CH2CO}-[Dap]Y(Carboxymethyl)D[Phe(3-Me)]V[Bip][Cit][Orn][dL][Dab][Cha]VTCAK[Aun]-OH; thioether N-14) |
| 21.2 | CC(C)C[C@H]1NC(=O)[C@H](CCCN)NC(=O)[C@H](C(C)C)NC(=O)[C@H](Cc2ccc(-c3ccccc3)cc2)NC(=O)[C@H](C(C)C)NC(=O)[C@H](Cc2c[nH]c3ccccc23)NC(=O)[C@H](CC(=O)O)NC(=O)[C@H](Cc2ccc(OCC(=O)O)cc2)NC(=O)[C@H](CCCCNC(=N)N)NC(=O)CSC[C@@H](C(=O)NCC(=O)NCCOCCOCC(=O)N[C@@H](CCCN)C(=O)NCCCCCCCCCCCC(=O)O)NC(=O)[C@H](CN)NC(=O)[C@H](C(C)C)NC(=O)[C@H](CC2CCCCC2)NC(=O)[C@H](CCN)NC1=O [Compound 3173] ({CH2CO}-[hArg]Y(Carboxymethyl)DWV[Bip]V[Orn][dL][Dab][Cha]V[Dap]CG[AEEA][Orn][12Ado]-OH; thioether N-14) |
| 37.4 | CC(C)C[C@H]1NC(=O)[C@H](CCCN)NC(=O)[C@H](C(C)C)NC(=O)[C@H](Cc2ccc(-c3ccccc3)cc2)NC(=O)[C@H](C(C)C)NC(=O)[C@H](Cc2c[nH]c3ccccc23)NC(=O)[C@H](CC(=O)O)NC(=O)[C@H](Cc2ccc(OCC(=O)O)cc2)NC(=O)[C@H](CN)NC(=O)CSC[C@@H](C(=O)NCCOCCOCC(=O)N[C@H](CCN)C(=O)NCCCCCCCCCCC(=O)O)NC(=O)[C@H]([C@@H](C)O)NC(=O)[C@H](C(C)C)NC(=O)[C@H](CC2CCCCC2)NC(=O)[C@H](Cc2cnc[nH]2)NC1=O [Compound 1129] ({CH2CO}-[Dap]Y(Carboxymethyl)DWV[Bip]V[Orn][dL]H[Cha]VTC[AEEA][dDab][Aun]-OH; thioether N-14) |
| 48.9 | CC(C)C[C@H]1NC(=O)[C@H](CCCN)NC(=O)[C@H](Cc2ccc(O)cc2)NC(=O)[C@H](Cc2ccc(-c3ccccc3)cc2)NC(=O)[C@H](Cc2ccc(OCC(=O)O)cc2)NC(=O)[C@H](Cc2c[nH]c3ccccc23)NC(=O)[C@H](CC(=O)O)NC(=O)[C@H](Cc2ccc(OCC(=O)O)cc2)NC(=O)[C@H](CN)NC(=O)CSC[C@@H](C(=O)N[C@@H](CCN)C(=O)NCCOCCOCC(=O)NCCCCCCCCCCC(=O)O)NC(=O)[C@H](CCCN)NC(=O)[C@H](C(C)C)NC(=O)[C@H](CC2CCCCC2)NC(=O)[C@H](CCN)NC1=O [Compound 1306] ({CH2CO}-[Dap]Y(Carboxymethyl)DWY(Carboxymethyl)[Bip]Y[Orn][dL][Dab][Cha]V[Orn]C[Dab][AEEA][Aun]-OH; thioether N-14) |

The remaining lines, values behind:

| SMILES | IC50 [nM] |
| --- | --- |
| Cc1cccc(C[C@@H]2NC(=O)[C@H](CC(=O)O)NC(=O)[C@H](Cc3ccc(OCC(=O)O)cc3)NC(=O)[C@H](Cc3ccc(F)c(F)c3)NC(=O)CSC[C@@H](C(=O)N[C@@H](CCN)C(=O)NCCCCCCCCCCC(=O)O)NC(=O)[C@H](CO)NC(=O)[C@H](C(C)(C)O)NC(=O)[C@H](CC3CCCCC3)NC(=O)[C@H](CCN)NC(=O)[C@@H](CC(C)C)NC(=O)[C@H](CCCN)NC(=O)[C@H](Cc3ccc(OCC(=O)O)cc3)NC(=O)[C@H](Cc3ccc(-c4ccccc4)cc3)NC(=O)[C@H](Cc3ccc(OCC(=O)O)cc3)NC2=O)c1 [Compound 2217] ({CH2CO}-[Phe(3,4-F2)]Y(Carboxymethyl)D[Phe(3-Me)]Y(Carboxymethyl)[Bip]Y(Carboxymethyl)[Orn][dL][Dab][Cha][Val(3-OH)]SC[Dab][Aun]-OH; thioether N-14) | 27.9 |
| CNC[C@@H]1NC(=O)CSC[C@@H](C(=O)N[C@@H](CCN)C(=O)NCCOCCOCC(=O)N[C@@H](CCC(=O)NCCOCCOCC(=O)NCCCCCCCCCCCCC(=O)O)C(=O)O)NC(=O)[C@H](CO)NC(=O)[C@H](C(C)(C)O)NC(=O)[C@H](CC2CCCCC2)NC(=O)[C@H](CCN)NC(=O)[C@@H](CC(C)C)NC(=O)[C@H](CCCN)NC(=O)[C@H](Cc2ccc(C(=O)O)cc2)NC(=O)[C@H](Cc2ccc(-c3ccccc3)cc2)NC(=O)[C@H](Cc2ccc(C(=O)O)cc2)NC(=O)[C@H](Cc2cccc(C(F)(F)F)c2)NC(=O)[C@H](CC(=O)O)NC(=O)[C@H](Cc2ccc(OCC(=O)O)cc2)NC1=O [Compound 3903] ({CH2CO}-[Dap(Me)]Y(Carboxymethyl)D[Phe(3-CF3)][Phe(4-COOH)][Bip][Phe(4-COOH)][Orn][dL][Dab][Cha][Val(3-OH)]SC[Dab][AEEA][γGlu][AEEA]-{NH(CH2)12COOH}; thioether N-14) | 49.7 |
| Cc1cccc(C[C@@H]2NC(=O)[C@H](CC(=O)O)NC(=O)[C@H](Cc3ccc(C(=O)O)cc3)NC(=O)[C@H](Cc3ccncc3)NC(=O)CSC[C@@H](C(=O)N[C@@H](CCN)C(=O)NCCOCCOCC(=O)NCCOCCOCC(=O)NCCCCCCCCCCC(=O)O)NC(=O)[C@H](CCC(=O)O)NC(=O)[C@H](C(C)C)NC(=O)[C@H](CC3CCCCC3)NC(=O)[C@H](CCN)NC(=O)[C@@H](CC(C)C)NC(=O)[C@H](CCCN)NC(=O)[C@H](Cc3ccc(C(=O)O)cc3)NC(=O)[C@H](Cc3ccc(-c4ccccc4)cc3)NC(=O)[C@H](Cc3ccc(C(=O)O)cc3)NC2=O)c1 [Compound 3765] ({CH2CO}-[4Pal][Phe(4-COOH)]D[Phe(3-Me)][Phe(4-COOH)][Bip][Phe(4-COOH)][Orn][dL][Dab][Cha]VEC[Dab][AEEA][AEEA][Aun]-OH; thioether N-14) | 344 |
| Cc1cccc(C[C@@H]2NC(=O)[C@H](CC(=O)O)NC(=O)[C@H](Cc3ccc(OCC(=O)O)cc3)NC(=O)[C@H](CN)NC(=O)CSC[C@@H](C(=O)N[C@@H](C)C(=O)N[C@@H](CC(=O)NCCOCCOCC(=O)NCCCCCCCCCCC(=O)O)C(=O)O)NC(=O)[C@H]([C@@H](C)O)NC(=O)[C@H](C(C)C)NC(=O)[C@H](CC3CCCCC3)NC(=O)[C@H](CCN)NC(=O)[C@@H](CC(C)C)NC(=O)[C@H](CCCN)NC(=O)[C@H](CCCNC(N)=O)NC(=O)[C@H](Cc3ccc(-c4ccccc4)cc3)NC(=O)[C@H](C(C)C)NC2=O)c1 [Compound 1010] ({CH2CO}-[Dap]Y(Carboxymethyl)D[Phe(3-Me)]V[Bip][Cit][Orn][dL][Dab][Cha]VTCA[βAsp][AEEA][Aun]-OH; thioether N-14) | 6.3 |
| CC(C)C[C@H]1NC(=O)[C@H](CCCN)NC(=O)[C@H](CCC(=O)O)NC(=O)[C@H](Cc2ccc(-c3ccccc3)cc2)NC(=O)[C@H](C(C)C)NC(=O)[C@H](Cc2c[nH]c3ccccc23)NC(=O)[C@H](CC(=O)O)NC(=O)[C@H](Cc2ccc(C(=O)O)cc2)NC(=O)[C@H](C(C)N)NC(=O)CSC[C@@H](C(=O)N[C@@H](CC(N)=O)C(=O)NCCOCCOCCOCCOCCOCCOCCC(=O)N[C@@H](CCCN)C(=O)NCCCCCCCCCCCC(=O)O)NC(=O)[C@H](CO)NC(=O)[C@H](C(C)C)NC(=O)[C@H](CC2CCCCC2)NC(=O)[C@H](CCN)NC1=O (stereo partly drawn) [Compound 3046] ({CH2CO}-[X12][Phe(4-COOH)]DWV[Bip]E[Orn][dL][Dab][Cha]VSCN[PEG6][Orn][12Ado]-OH; thioether N-14) | 13.1 |
| Cc1cccc(C[C@@H]2NC(=O)[C@H](CC(=O)O)NC(=O)[C@H](Cc3ccc(OCC(=O)O)cc3)NC(=O)[C@H](CN)NC(=O)CSC[C@@H](C(=O)N[C@@H](CCCCN)C(=O)NCCCCCCCCCCC(=O)O)NC(=O)[C@H](CN)NC(=O)[C@H](C(C)C)NC(=O)[C@H](CC3CCCCC3)NC(=O)[C@H](CCN)NC(=O)[C@@H](CC3CCCCC3)NC(=O)[C@H](CCCN)NC(=O)[C@H](C(C)C)NC(=O)[C@H](Cc3ccc(-c4ccccc4)cc3)NC(=O)[C@H](C(C)C)NC2=O)c1 [Compound 2686] ({CH2CO}-[Dap]Y(Carboxymethyl)D[Phe(3-Me)]V[Bip]V[Orn][dCha][Dab][Cha]V[Dap]CK[Aun]-OH; thioether N-14) | 16.1 |
| Cc1cccc(C[C@@H]2NC(=O)[C@H](CC(=O)O)NC(=O)[C@H](Cc3ccc(OCC(=O)O)cc3)NC(=O)[C@H]([C@@H](C)O)NC(=O)CSC[C@@H](C(=O)N[C@@H](CCN)C(=O)NCCCCCCCCCCC(=O)O)NC(=O)[C@H]([C@@H](C)O)NC(=O)[C@H](C(C)C)NC(=O)[C@H](CC3CCCCC3)NC(=O)[C@H](CCN)NC(=O)[C@@H](CC(C)C)NC(=O)[C@H](CCCN)NC(=O)[C@H](Cc3ccc(OCC(=O)O)cc3)NC(=O)[C@H](Cc3ccc(-c4ccccc4)cc3)NC(=O)[C@H](Cc3ccc(OCC(=O)O)cc3)NC2=O)c1 [Compound 2086] ({CH2CO}-TY(Carboxymethyl)D[Phe(3-Me)]Y(Carboxymethyl)[Bip]Y(Carboxymethyl)[Orn][dL][Dab][Cha]VTC[Dab][Aun]-OH; thioether N-14) | 10.2 |
